The text below walks through data of patent US8563526B2, “Triazole derivatives, their preparation and their application in therapeutics” (Institut National de la Sante et de la Recherche Medicale …, priority 2008, dated 2013).

The test system of one data set is MiaPaCa-2 cells. The data set is described as follows: Combination effect with gemcitabine in vitro, MTT assay on MiaPaCa-2 cells. It counts as cell-based. The following applies: combined with gemcitabine, MiaPaCa-2, FIG. 9. The source says: FIG. 9 illustrates the beneficial combination effect of compounds (1, 4 or 18) in vitro based on the results obtained by using a MTT assay on MiaPaCa-2 cells.
Three compounds (compounds n^o 1, 4 and 18) combined with gemcitabine were accessed their anticancer activity.
Background: Formazan colour is commonly taken as a measure of viable cells.

The test system of another data set is p-8 mRNA. The data set is described as follows: p-8 mRNA expression in MiaPaCa-2 cells by quantitative RT-PCR. The following applies: FIG. 12. The class given is cell-based. The source says: The stress-associated protein, p-8 with antiapoptotic properties was strongly expressed in two of the most resistant pancreactic cancer cell lines, while Heat Shock Protein 27 (Hsp27) is a protein which can be over-expressed in many tumor cells and protects against apoptotic cell death triggered by various stimuli. So in order to study the intracellular target of the active compounds, the effect of the active compounds on the expression of p-8 and Hsp27 mRNA in MiaPaCa-2 cells were investigated by quantitative RT-PCR. First-strand cDNA was synthesized in 20 μL reaction with 1 μg total RNA using Expand Reverse Transcriptase (Roche, Meylan, France) following the instructions of the manufacturer. Quantitative PCR was done with the Light Cycler system (Roche) and Takara (Berkeley, Calif.) reagents. Five microliters of 10-fold diluted cDNA were mixed with 10 μL SYBR Premix Ex Taq (including Taq polymerase, reaction buffer, MgCl2, SYBR green I dye, and deoxynucleotide triphosphate mix) and […] forward and reverse primers (TBP primers are used as a control) in a volume of 20 μL. […] Each sample was analyzed in duplicate and the experiment was repeated twice. Results were analyzed using RelQuant (Roche) and expressed as percent of control values.

Another data set concerns Capan-2 cells. The data set is described as follows: MTT cell survival assay on Capan-2 cells. The class given is cell-based. The conditions noted are these: for cells die / cell viability: FIG. 2; for inhibition at 50 µM: Homo sapiens, Capan-2, 48 h, read-out: Inhibition effect on Capan-2 at 50 μM (%). The procedure:
For Capan-2 cell lines, the cells were cultured in RPMI 1640 medium supplemented with 10% FBS and 1% glutamine. Cells were seeded at a densitiy of 20,000 cells per well in 96 well View Plate™ (Packard) in 250 μl of medium containing the same components as described above.
(§1) Cells were allowed to adhere and proliferate for 24 hr. At that time, culture medium was removed and serial dilutions from 10 nM to 200 μM of the test compounds were added in culture medium. Gemcitabine and no treatment were included as positive and negative controls. Plates were further incubated at 37° C. and 5% CO2 for 48 hours. The number of viable cells remaining after the appropriate treatment was determined by Colorimetric Assay (3-(4,5-dimethylthiazol-2-yl)-2,5-diphenyl tetrazolium bromide, MTT).
(§2) Inhibition of MiaPaCa and Capan-2 cells were tested at different doses of compounds of the invention: 50 μM, 100 μM and 200 μM.
(§3) Cells were seeded on 96-well plates in 250 μL media and 24 hours later, compound to be tested was added in 250 μL of media to the desired final concentration (from 10 nM to 200 μM). After 48 hours, the number of viable cells remaining after the appropriate treatment was determined by MTT. Minimum Efficient Dose (MED) and IC50 values was evaluated from the dose-dependency study. The results in FIGS. 1, 2, 4 and 5 are presented in percentage of cell growth inhibition compared to control non treated cells.

Data set [1] concerns MiaPaCa-2-xenografed tumors. The data set is described as follows: MiaPaCa-2 xenograft tumor growth in nude mice. It counts as in vivo. The procedure: The antitumor effects of the active compounds 1 and 4 were evaluated in nude mice bearing MiaPaCa-2-xenografed tumors. Institutional guidelines for the proper and human use of animals in research were followed. Approximately 1×10^7 MiaPaCa-2 cells were inoculated subcutaneously with 0.1 mL of Matrigel (BD Biosciences Discovery Labware) to 6-week-old male xenografed nude mice. When MiaPaCa-2 tumors reached 100 mm^3, mice were randomly selected for treatment with test compound and no treated mice were used as control. Each experimental group consisted of 8 mice. After randomization, 150 mg/kg test compound was injected every three days by i.p. injection for 5 weeks. The combination injection was performed every two days. Tumor volume measurements were performed once weekly and calculated by the formula length×width×depth×0.5236.

The test system of data set [2] is MiaPaCa cells. The data set is described as follows: MTT cell survival assay on MiaPaCa cells. The following applies: for inhibition at 50 µM: Homo sapiens, MIA PaCa-2, 48 h. It counts as cell-based. As for the experimental part: Pancreactic cancer cell lines, MiaPaCa cells were cultured in DMEM medium (Gibco) supplemented with 10% fetal bovine serum (FBS). Cells were seeded at a densitiy of 15,000 cells per well in 96 well View Plate™ (Packard) in 250 μl of medium containing the same components as described above.
as §1, §2, §3

Data set [3] concerns MiaPaCa cells. The data set is described as follows: Apoptosis evaluation on MiaPaCa cells by flow cytometry (sub-G0 ratio). It counts as cell-based. The following applies: 24 h after administration, FIG. 3. The procedure:
Cells were plated in 10 cm dishes at the density of 300 000 cells/plate. Cells were stopped for flow cytometry analysis 12, 24 and 48 h post-treatment. After trypsination, cell pellet was washed with PBS and fixed in cold-ethanol 70% overnight at 4° C. After a wash with phosphate-citrate buffer, cells were treated with 200 μL RNA-ase (500 μg/mL), labeled with 1 mL propidium iodide (50 μg/mL), and immediately analyzed by flow cytometry (FACS Calibur, Becton Dickinson, Le Pont-De-Claix, France). Cell death analysis was done on 1,000,000 cells, evaluating the sub-G0 ratio. Each sample was performed in triplicate.
A general note: A flow cytometer gives signals particle by particle.

Another data set concerns pancreatic cancer. The following applies: pancreatic cancer patients, first-line treatment; cited from earlier work.
The mark [4] stands for this setting: 50 μM, 48 hours, MTT, Table II, read-out: Inhibition effect on MiaPaCa at 50 μM (%).
Setting [5] is: 50 μM, 48 hours, MTT, Table III.
[6] abbreviates: 50 μM, 48 hours, MTT, Table III, read-out: Inhibition effect on MiaPaCa-2 at 50 μM (%).

Molecules are shown by their SMILES. Where two headings read alike, the source gives them in different places.

With `COC(=O)c1nc(C#Cc2ccc(C(F)(F)F)cc2)n([C@@H]2O[C@H](COC(C)=O)[C@@H](OC(C)=O)[C@H]2OC(C)=O)n1` [Compound 1, Methyl 5-(4-trifluoromethylphenylethynyl)-1-(2,3,5-tri-O-acetyl-β-D-ribofuranosyl)-1H-[1,2,4]triazole-3-carboxylate], the “antiproliferation in combination with gemcitabine” value in the data set with MiaPaCa-2 cells is on record as “more efficiency on antiproliferation”. Moreover, the “p-8 mRNA expression” value in the data set on p-8 mRNA (combination with gemcitabine) is listed as “down-regulated”. The cells die result is reported as “about 60%” with Capan-2 cells (Capan-2, 50 μM); “more than 80%” with Capan-2 cells (Capan-2, 100 μM); “about 60%” in the data set on MiaPaCa cells [2] (MiaPaCa, 50 μM, FIG. 1). Also, the inhibition (as a rule, how much of the control response was suppressed) at 50 µM was more than 50% in the data set on Capan-2 cells (50 μM, 48 hours, MTT, Table II) and more than 50% in the data set on MiaPaCa cells [2] (setting [4]). In data set [1] (150 mg/kg i.p. every three days for 5 weeks, compound alone, FIG. 10), the MiaPaCa-2 tumor volume result was “reduce MiaPaCa-2 tumor volume”. Moreover, the “adverse effect of drug treatment” value in data set [1] (alone or in combination with gemcitabine, nude mice, FIG. 11) was “absence of adverse effect”. Moreover, in data set [1] (combined with gemcitabine, injection every two days, FIG. 10), the tumor growth entry is “almost sinificantly inhibited”. Also, the “apoptosis compared to cells treated with gemcitabine” value with MiaPaCa cells [3] is on record as “about 4 times”. Further, the “apoptosis compared to non-treated cells” value in the data set with MiaPaCa cells [3] is listed as “about 8 times”.

Take `COC(=O)c1nc(C#CC2=CCCCC2)n([C@@H]2O[C@H](COC(C)=O)[C@@H](OC(C)=O)[C@H]2OC(C)=O)n1` [Compound 2, Methyl 5-(Cyclohexenylethynyl)-1-(2,3,5-tri-O-acetyl-β-D-ribofuranosyl)-1H-[1,2,4]triazole-3-carboxylate]: the cell viability entry in the data set with Capan-2 cells (Capan-2, doses higher than 100 μM) is on record as “cell viability rapidly decreases”. Further, the inhibition at 50 µM in the data set with Capan-2 cells (50 μM, 48 hours, MTT, Table II) worked out at 57.6%; in the data set with MiaPaCa cells [2] (setting [4]), 21.3%.

On to `NC(=O)c1nc(C#Cc2ccc(Br)cc2)n(COCCO)n1` [Compound 14, 1-((2-hydroxyethoxy)methyl)-5-(2-(4-bromophenyl)ethynyl)-1H-1,2,4-triazole-3-carboxamide], for which the inhibition at 50 µM with Capan-2 cells (setting [5]) and in the data set with MiaPaCa cells [2] (setting [6]) was more than 50% throughout.

In the case of `NC(=O)c1nc(C#Cc2ccc(C(F)(F)F)cc2)n(COCCOC(=O)c2ccccc2)n1` [Compound 15, 1-[(2-(benzoyloxy)ethoxy)methyl]-5-(2-(4-trifluoromethylphenyl)ethynyl)-1H-1,2,4-triazole-3-carboxamide], the inhibition at 50 µM in the data set on Capan-2 cells (setting [5]) and in the data set on MiaPaCa cells [2] (setting [6]) was more than 50% in each case.

On to `CCCCCCCCCCCCn1cc(-c2nc(C(N)=O)nn2COCCO)nn1` [Compound 17], for which the “Inhibition effect on Capan-2 at 50 μM (%)” value with Capan-2 cells (setting [5]) came to 29.5%. For the same molecule, the “Inhibition effect on MiaPaCa-2 at 50 μM (%)” value in the data set on MiaPaCa cells [2] (setting [5]) was 43.2%.

As for `COC(=O)c1nc(-c2cn(Cc3ccc4ccc5cccc6ccc3c4c56)nn2)n(COCCOC(C)=O)n1` [Compound 18, Methyl 1-((2-acetoxyethoxy)methyl)-5-(1-((pyren-3-yl)methyl)-1H-1,2,3-triazol-4-yl)-1H-1,2,4-triazole-3-carboxylate], the “antiproliferation in combination with gemcitabine” value with MiaPaCa-2 cells is listed as “more efficiency on antiproliferation”. For the same molecule, in the data set with p-8 mRNA (single treatment), the “p-8 mRNA expression” value is “significantly inhibit”. Further, in the data set on Capan-2 cells (setting [5]), the inhibition at 50 µM is more than 50%.

Turning to `NC(=O)c1nc(-c2cn(Cc3ccc4ccc5cccc6ccc3c4c56)nn2)n(COCCO)n1` [Compound 19, 1-((2-hydroxyethoxy)methyl)-5-(1-((pyren-3-yl)methyl)-1H-1,2,3-triazol-4-yl)-1H-1,2,4-triazole-3-carboxamide], the inhibition at 50 µM with Capan-2 cells (setting [5]) turned out to be 43.4%; in the data set on MiaPaCa cells [2] (setting [6]), 59.3%.

As to `NC(=O)c1nc(-c2cn(Cc3ccc4ccc5cccc6ccc3c4c56)nn2)nn1COCCO` [Compound 20, 1-((2-hydroxyethoxy)methyl)-3-(1-((pyren-3-yl)methyl)-1H-1,2,3-triazol-4-yl)-1H-1,2,4-triazole-5-carboxamide], the results for the inhibition at 50 µM in the data set on Capan-2 cells (setting [5]) and in the data set with MiaPaCa cells [2] (setting [6]) were 60.6% and 28.7%, respectively.

As for `NC(=O)c1nc(-c2cn(-c3cccc4ccccc34)nn2)n(COCCO)n1` [Compound 21, 1-((2-hydroxyethoxy)methyl)-5-(1-(naphthalen-1-yl)-1H-1,2,3-triazol-4-yl)-1H-1,2,4-triazole-3-carboxamide], the values for the inhibition at 50 µM in the data set on Capan-2 cells (setting [5]) and in the data set on MiaPaCa cells [2] (setting [6]) were 55.6% and 30.9%, respectively.

On to `COC(=O)c1nc(-c2cn(-c3ccc4ccc5cccc6ccc3c4c56)nn2)n(COCCOC(C)=O)n1` [Compound 22, Methyl 1-((2-acetoxyethoxy)methyl)-5-(1-(pyren-3-yl)-1H-1,2,3-triazol-4-yl)-1H-1,2,4-triazole-3-carboxylate], for which the inhibition at 50 µM in the data set on Capan-2 cells (setting [5]) was determined as 63.9%; in the data set with MiaPaCa cells [2] (setting [6]), 40.7%.

Take `Nc1ccn([C@@H]2O[C@H](CO)[C@@H](O)C2(F)F)c(=O)n1` [Gemcitabine, reference compound]: the cell viability entry in the data set with Capan-2 cells (Capan-2, with dose increase) is “cell viability stagnates”. For the same molecule, the inhibition at 50 µM in the data set on Capan-2 cells (50 μM, 48 hours, MTT, Table II) amounted to 61.7%; in the data set with Capan-2 cells (setting [5]) it was 61.7%; in the data set with MiaPaCa cells [2] (setting [4]), 29.3%; in the data set with MiaPaCa cells [2] (setting [6]) it was 29.3%. The cells remaining alive entry in the data set on MiaPaCa cells [2] (MiaPaCa, 50 μM or 100 μM, FIG. 1) is given as “about 80%”. The response with pancreatic cancer is 12%.
